Experiments:
[1] = tested on: KLK2, PSA (KLK3), PAP (ACPP), HOXB13, and NKX3-1; assay: IFN-γ ELISPOT of splenocytes restimulated with mRNA-electroporated BMDCs after RNA(LIP) vaccination; assay type: in vivo, A2/DR1 mice; conditions: 30 μg of each antigen RNA complexed with liposomes, IV, four to five vaccinations, R&D-quality RNA
Description: FIG. 18: Vaccination with W_pro1 antigen RNAs leads to antigen-specific T-cell responses. Splenocytes of intravenously vaccinated A2/DR1 mice (n=4-5/group) were restimulated for 20 h with BMDCs electroporated with the corresponding mRNAs as indicated. BMDCs electroporated with irrelevant mRNA were used as control (open symbols, grey bars). Effector function was measured using an IFN-γ ELISPOT assay. Symbols indicate mean values of triplicate wells from individual animals. Bars indicate median of all animals per group.
To obtain more information about the in vivo induction of antigen-specific T cells by the prostate specific antigens KLK2, PSA (KLK3), PAP (ACPP), HOXB13, and NKX3-1, RNA(LIP) products were prepared using RNA of R&D quality and liposomes of GMP-like quality. The RNA(LIP) products were injected intravenously into transgenic mice manipulated to express the human leukocyte antigens HLA-A*0201 and -DRB1*01. Using these mice the priming and expansion of T cells specific for HLA-restricted epitopes can be examined in vivo. A2/DR1 mice were vaccinated four to five times by injection of 30 μg of each antigen RNA complexed with liposomes, followed by isolation of spleen cells (5 days after last vaccination). The priming efficiency of the test items was evaluated by IFN-γ ELISPOT assay after restimulation with bone marrow derived dendritic cells (BMDC) electroporated with the respective mRNA or unrelated control mRNA.

[2] = tested on: KLK2, PSA (KLK3), PAP (ACPP), HOXB13, and NKX3-1; assay: as above; assay type: in vivo, A2/DR1 mice; conditions: RNAs manufactured under GMP-conditions; study will be performed
[3] = Respiratory safety (plethysmography) within GLP repeated dose toxicity studies (LPT No. 28864, 30283); assay type: in vivo, mice; conditions: positive control, 30 mg/kg b.w.
Description: Respiratory safety was included in repeated dose toxicity studies in mice using RNA DPs coding for TAAs in compliance with GLP (LPT No. 28864 and 30283, for study design see below). For example, plethysmography was tested in the study with RNA(LIP) (LPT No. 30283) with four animals/sex/group treated either with control buffer, a low and a high dose (5 and 50 μg of RNA formulated with 9 μg and 90 μg of liposomes, respectively). A positive control of animals treated with 30 mg Carbamyl-β-methylcholine chloride (bethanecol)/kg b.w. was also included. Plethysmography was performed one day after the 4th to 7th dosing. The tests included the evaluation of respiratory rate, tidal volume, minute volume, inspiratory time, expiratory time, peak expiratory and inspiratory flow, expiratory time, and airway resistance index.

[4] = tested on: KLK2, KLK3 (PSA), ACPP (PAP), NKX3-1 or HOXB13; assay: IFN-γ ELISPOT of splenocytes restimulated with peptide pools (Example 3); assay type: in vivo, A2/DR1 mice; conditions: 30 μg RNA(Lip) days 1, 8, 15, 22; splenocytes five days after final injection; unpaired t test
From the text: IFN-γ ELISPOT analysis of T-cell effectors from the spleen of mice immunized with lipoplex-formulated RNA coding for KLK2(aa 1-261), KLK3(aa 1-261), ACPP(aa 1-418), HOXB13(aa 1-284) or NKX3-1(aa 1-234). Splenocytes obtained five days after the final immunization were re-stimulated with either a peptide pool spanning the respective human protein, P2/P16/P17 peptides or with an irrelevant control peptide CMV pp65(495-504). Dots represent individual animals; horizontal bars indicate the mean±SD of the three animals.
At day 1, day 8, day 15, and day 22 A2/DR1 mice were immunized with 200 μL of a 0.15 mg/mL RNA(Lip) solution which corresponds to 30 μg RNA(Lip).
Splenocytes were obtained from the immunized A2/DR1 mice five days after the final of four RNA(Lip) injections, and in vivo induction ofantigen-specificTcells was determined by ELISPOT analysis. To test for the immunogenicity, isolated splenocytes were re-stimulated with a peptide pool (15 mers, overlapping by 11 amino acids) spanning the respective human proteins, KLK2, KLK3 (PSA), ACPP (PAP), NKX3-1 or HOXB13. […] On all ELISPOT plates, the negative control medium alone induced only a minimal spot count regardless of the animal the splenocytes had been derived from.

For “beta-S-ARCA(D1)-hAg-Kozak-KLK3-GS-P2P16-GS-MITD-FI-A30L70 [RBL039.1]”, the “antigen-specific T-cell responses in vivo” value [1] was “induced antigen-specific T-cell responses” and the immunogenicity [2] was “comparable to the results from earlier studies”.
For “beta-S-ARCA(D1)-hAg-Kozak-sec-GS-NKX31-GS-P2P16-GS-MITD-FI-A30L70 [RBL045.1]”, the “antigen-specific T-cell responses in vivo” value [1] was “induced antigen-specific T-cell responses” and the immunogenicity [2] was “comparable to the results from earlier studies”.
With `CC(C[N+](C)(C)C)OC(N)=O.[Cl-]` (stereo not drawn) [Carbamyl-β-methylcholine chloride] the “pulmonary parameters (plethysmography)” value [3] was “expected alterations”.
With “beta-S-ARCA(D1)-hAg-Kozak-sec-GS-HOXB13-GS-P2P16-GS-MITD-FI-A30L70 [RBL041.1]” the “antigen-specific T-cell responses in vivo” value [1] was “induced antigen-specific T-cell responses”, the “IFN-γ+ spot count vs restimulation with control peptide CMV pp65” value (shortened to “IFN-γ+ spot count vs restimulation”) [4] was “statistically higher” and the immunogenicity [2] was “comparable to the results from earlier studies”.
In the case of “beta-S-ARCA(D1)-hAg-Kozak-KLK2-GS-P2P16-GS-MITD-FI-A30L70 [RBL038.1]”, the “antigen-specific T-cell responses in vivo” value [1] is reported as “induced antigen-specific T-cell responses”, the “IFN-γ+ spot count vs restimulation” value [4] is reported as “statistically higher” and the immunogenicity [2] is reported as “comparable to the results from earlier studies”.
In the case of “beta-S-ARCA(D1)-hAg-Kozak-ACPP-GS-P2P16-GS-MITD-FI-A30L70 [RBL040.1]”, the “antigen-specific T-cell responses in vivo” value [1] is reported as “induced antigen-specific T-cell responses”, the “IFN-γ+ spot count vs restimulation” value [4] is reported as “statistically higher” and the immunogenicity [2] is reported as “comparable to the results from earlier studies”.

— US20230114808A1, “THERAPEUTIC RNA FOR PROSTATE CANCER” (BioNTech SE, priority 2019, published 2023)
